The values that follow come from PubChem BioAssay AID280 (DTP/NCI, 2004).

“And” between values parts separate entries of the source, which are not always exact repeats. Identical values can stand only once. Inconclusive results and toxic doses are left out.

In this test the test system is nude mice, LOX melanoma ip, survival T/C. In words: NCI In Vivo Anticancer Drug Screen. Data for tumor model Human Amelanotic Melanoma (LOX) (intraperitoneal) in NU/NU BALB/C (nude) mice. Conditions: endpoint: median survival time, higher = longer survival. How it is done:
The antitumor activity of compounds was measured in mice bearing transplantable tumors. Survival or tumor size were measured and the results are expressed as the measurement made in the treated group (T) divided by the measurement made in the vehicle treated control group (C). The tumor model used in this assay is Human Amelanotic Melanoma (LOX) (intraperitoneal) in NU/NU BALB/C (nude) mice

Where [1] appears, read: dose: 100.0 mg/kg/injection, schedule: Q04DX003 (ip), vehicle: saline with Tween-80.
Setting [2] is: dose: 200.0 mg/kg/injection, schedule: Q04DX003 (ip), vehicle: saline with Tween-80.

`[Cl][Hg][Cl]`: the T/C by setting is: (dose: 0.63 mg/kg/injection, schedule: Q04DX003 (ip), vehicle: saline) 88 % of control and 96 % of control; (dose: 2.5 mg/kg/injection, schedule: Q04DX003 (ip), vehicle: saline) 95 % of control; (dose: 5.0 mg/kg/injection, schedule: Q04DX003 (ip), vehicle: saline) 91 % of control.

As to `N=C(N)SCc1cccc2c(=O)cc(-c3ccccc3)oc12`, the T/C (dose: 25.0 mg/kg/injection, schedule: Q04DX003 (ip), vehicle: suspension in saline) is 101 % of control; the T/C (dose: 50.0 mg/kg/injection, schedule: Q04DX003 (ip), vehicle: suspension in saline) is 111 % of control; the T/C (dose: 100.0 mg/kg/injection, schedule: Q04DX003 (ip), vehicle: suspension in saline) is 118 % of control; the T/C (dose: 400.0 mg/kg/injection, schedule: Q04DX003 (ip), vehicle: suspension in saline) is 124 % of control.

Take `COc1c(O)cc2c(c1OC)-c1ccc(SC)c(=O)cc1C(NC(C)=O)CC2` (stereo not drawn): the T/C is 114 % of control (dose: 4.0 mg/kg/injection, schedule: Q04DX003 (ip), vehicle: other); 151 % of control and 252 % of control (dose: 5.0 mg/kg/injection, schedule: Q04DX003 (ip), vehicle: Klucel (hydroxypropylcellulose) (HPC)); 111 % of control and 116 % of control (dose: 5.9 mg/kg/injection, schedule: Q04DX003 (ip), vehicle: other); 117 % of control (dose: 8.9 mg/kg/injection, schedule: Q04DX003 (ip), vehicle: other); 151 % of control and 305 % of control (dose: 10.0 mg/kg/injection, schedule: Q04DX003 (ip), vehicle: Klucel (hydroxypropylcellulose) (HPC)); 151 % of control and 156 % of control (dose: 20.0 mg/kg/injection, schedule: Q04DX003 (ip), vehicle: other).

`c1ccc([Te][Te]c2ccccc2)cc1`: the T/C runs as follows: (dose: 37.5 mg/kg/injection, schedule: Q04DX003 (ip), vehicle: saline with Tween-80) 102 % of control; (dose: 75.0 mg/kg/injection, schedule: Q04DX003 (ip), vehicle: saline with Tween-80) 92 % of control; (dose: 150.0 mg/kg/injection, schedule: Q04DX003 (ip), vehicle: saline with Tween-80) 112 % of control.

With `CC/C(=C(\c1ccccc1)c1ccc(OCCN(C)C)cc1)c1ccccc1`, the T/C is 109 % of control (dose: 75.0 mg/kg/injection, schedule: Q04DX003 (ip), vehicle: suspension in saline); 101 % of control (dose: 150.0 mg/kg/injection, schedule: Q04DX003 (ip), vehicle: suspension in saline); 96 % of control (dose: 300.0 mg/kg/injection, schedule: Q04DX003 (ip), vehicle: suspension in saline); 95 % of control (dose: 600.0 mg/kg/injection, schedule: Q04DX003 (ip), vehicle: suspension in saline).

As to `COc1cccc2c1[C@H]1CO[C@H]3C4C[C@H](C(=O)O)C([C@@H](C2)N13)N4C` (stereo partly drawn), the T/C (dose: 0.62 mg/kg/injection, schedule: Q04DX003 (ip), vehicle: water) was 121 % of control; the T/C (dose: 1.25 mg/kg/injection, schedule: Q04DX003 (ip), vehicle: water) was 121 % of control; the T/C (dose: 5.0 mg/kg/injection, schedule: Q04DX003 (ip), vehicle: water) is 196 % of control; the T/C (dose: 10.0 mg/kg/injection, schedule: Q04DX003 (ip), vehicle: water) was 152 % of control; the T/C (dose: 20.0 mg/kg/injection, schedule: Q04DX003 (ip), vehicle: water) is 177 % of control.

As for `COc1cc(C(CC(C)=O)c2cc3c(cc2OC(C)=O)OCO3)cc(OC)c1OC` (stereo not drawn) (tested in a mixture with another compound), the T/C reads like this: (dose: 25.0 mg/kg/injection, schedule: Q04DX003 (ip), vehicle: saline with Tween-80) 104 % of control; (dose: 50.0 mg/kg/injection, schedule: Q04DX003 (ip), vehicle: saline with Tween-80) 106 % of control; under setting [1], 115 % of control; under setting [2], 120 % of control.

For `O=C1C2=C(C(=O)c3ncccc31)C1C=CC2CC1` (stereo not drawn), the T/C is 99 % of control (dose: 25.0 mg/kg/injection, schedule: Q04DX003 (ip), vehicle: DMSO); 103 % of control (dose: 50.0 mg/kg/injection, schedule: Q04DX003 (ip), vehicle: DMSO); 99 % of control (dose: 100.0 mg/kg/injection, schedule: Q04DX003 (ip), vehicle: DMSO); 89 % of control (dose: 200.0 mg/kg/injection, schedule: Q04DX003 (ip), vehicle: DMSO).

Turning to `CNC(=O)N(C)N=NCCCl`, the T/C by setting is: under setting [1], 201 % of control; under setting [2], 309 % of control; (dose: 400.0 mg/kg/injection, schedule: Q04DX003 (ip), vehicle: saline with Tween-80) 309 % of control; (dose: 800.0 mg/kg/injection, schedule: Q04DX003 (ip), vehicle: saline with Tween-80) 309 % of control.

As for `NC(N)=NS(=O)(=O)c1ccc(NCc2c3ccccc3nc3ccccc23)cc1`, the T/C (dose: 600.0 mg/kg/injection, schedule: Q04DX003 (ip), vehicle: Klucel (hydroxypropylcellulose) (HPC)) is 166 % of control and the T/C (dose: 1200.0 mg/kg/injection, schedule: Q04DX003 (ip), vehicle: Klucel (hydroxypropylcellulose) (HPC)) is 155 % of control.

In the case of `Nc1ccc(S(=O)(=O)Nc2cnc3c(Cl)cccc3n2)cc1`, the T/C reads like this: (dose: 89.1 mg/kg/injection, schedule: Q06HX002 (ip), vehicle: other) 103 % of control; (dose: 133.5 mg/kg/injection, schedule: Q01DX001 (ip), vehicle: other) 88 % of control; (dose: 133.5 mg/kg/injection, schedule: Q01DX005 (ip), vehicle: other) 109 % of control; (dose: 133.5 mg/kg/injection, schedule: Q06HX002 (ip), vehicle: other) 103 % of control; (dose: 200.2 mg/kg/injection, schedule: Q01DX001 (ip), vehicle: other) 98 % of control; (dose: 200.2 mg/kg/injection, schedule: Q01DX005 (ip), vehicle: other) 114 % of control. The T/C is, setting by setting: (dose: 200.2 mg/kg/injection, schedule: Q06HX002 (ip), vehicle: other) 114 % of control; (dose: 300.2 mg/kg/injection, schedule: Q01DX001 (ip), vehicle: other) 104 % of control; (dose: 300.2 mg/kg/injection, schedule: Q01DX005 (ip), vehicle: other) 116 % of control; (dose: 300.2 mg/kg/injection, schedule: Q06HX002 (ip), vehicle: other) 111 % of control; (dose: 450.0 mg/kg/injection, schedule: Q01DX001 (ip), vehicle: other) 110 % of control; (dose: 674.7 mg/kg/injection, schedule: Q01DX001 (ip), vehicle: other) 119 % of control.

Turning to `NC(=S=O)C(N)=S=O`, the T/C is 109 % of control (dose: 62.5 mg/kg/injection, schedule: Q04DX003 (ip), vehicle: saline with Tween-80); 105 % of control (dose: 125.0 mg/kg/injection, schedule: Q04DX003 (ip), vehicle: saline with Tween-80); 105 % of control (dose: 250.0 mg/kg/injection, schedule: Q04DX003 (ip), vehicle: saline with Tween-80); 105 % of control (dose: 500.0 mg/kg/injection, schedule: Q04DX003 (ip), vehicle: saline with Tween-80).

`CC1=CC=CC(C)(C)C(O)C1=O` (stereo not drawn): the T/C by setting is: (dose: 18.75 mg/kg/injection, schedule: Q04DX003 (ip), vehicle: Klucel (hydroxypropylcellulose) (HPC)) 98 % of control; (dose: 37.5 mg/kg/injection, schedule: Q04DX003 (ip), vehicle: Klucel (hydroxypropylcellulose) (HPC)) 94 % of control; (dose: 75.0 mg/kg/injection, schedule: Q04DX003 (ip), vehicle: Klucel (hydroxypropylcellulose) (HPC)) 98 % of control; (dose: 150.0 mg/kg/injection, schedule: Q04DX003 (ip), vehicle: Klucel (hydroxypropylcellulose) (HPC)) 98 % of control; (dose: 300.0 mg/kg/injection, schedule: Q04DX003 (ip), vehicle: Klucel (hydroxypropylcellulose) (HPC)) 93 % of control.

For `COc1cccc2c1C(CO)N1C(C#N)C3CC(C(=O)O)C(C1C2)N3C` (stereo not drawn), the T/C was 175 % of control (dose: 12.5 mg/kg/injection, schedule: Q04DX003 (ip), vehicle: saline); 164 % of control (dose: 12.5 mg/kg/injection, schedule: Q04DX003 (ip), vehicle: suspension in saline); 157 % of control (dose: 25.0 mg/kg/injection, schedule: Q04DX003 (ip), vehicle: saline).

On to `O=C(Oc1ccccc1)c1cc(O)c(O)c(O)c1`, for which the T/C was 157 % of control (dose: 37.5 mg/kg/injection, schedule: Q04DX003 (ip), vehicle: saline); 99 % of control (dose: 75.0 mg/kg/injection, schedule: Q04DX003 (ip), vehicle: saline); 152 % of control (dose: 150.0 mg/kg/injection, schedule: Q04DX003 (ip), vehicle: saline); 88 % of control (dose: 300.0 mg/kg/injection, schedule: Q04DX003 (ip), vehicle: saline); 94 % of control (dose: 600.0 mg/kg/injection, schedule: Q04DX003 (ip), vehicle: saline).
